Among the data in ChEMBL document CHEMBL3217560, “Synthesis and binding affinities for sst receptors of cyclic peptoid SRIF-mimetics” (Medchemcomm, 2012) are Ki, inhibition and Ratio Ki values, retold here.

Positions of bridges follow the written chain, without caps; N, C: chain ends. Non-standard residues stand in square brackets, D forms with d. Residues, ends and D or L forms follow the SMILES beside them. *: point of attachment. Threoninol(2S,3R) = C[C@@H](O)[C@H](CO)N*

One may read the Ki as a measure of affinity in units of concentration, obtained from inhibition or displacement. Low values mean higher affinity, high ones lower affinity.

Experiment [1] has as its target Somatostatin receptor type 1 (Homo sapiens, UniProt P30872). Nature of the experiment: Displacement of [125I]-somatostatin from human sst1 receptor after 2 hrs by beta scintillation counting analysis. (Loss of bound radioactivity is the signal in a displacement assay; it reports binding, not function.)
Experiment [2] concerns the target Somatostatin receptor type 2 (Homo sapiens, UniProt P30874). The experiment is described as follows: Displacement of [125I]-somatostatin from human sst2a receptor after 2 hrs by beta scintillation counting analysis.
Experiment [3] deals with Somatostatin receptor type 3 (Homo sapiens, UniProt P32745). The experiment is described as follows: Displacement of [125I]-somatostatin from human sst3 receptor after 2 hrs by beta scintillation counting analysis.
Somatostatin receptor type 3, sequence (P32745 whole entry): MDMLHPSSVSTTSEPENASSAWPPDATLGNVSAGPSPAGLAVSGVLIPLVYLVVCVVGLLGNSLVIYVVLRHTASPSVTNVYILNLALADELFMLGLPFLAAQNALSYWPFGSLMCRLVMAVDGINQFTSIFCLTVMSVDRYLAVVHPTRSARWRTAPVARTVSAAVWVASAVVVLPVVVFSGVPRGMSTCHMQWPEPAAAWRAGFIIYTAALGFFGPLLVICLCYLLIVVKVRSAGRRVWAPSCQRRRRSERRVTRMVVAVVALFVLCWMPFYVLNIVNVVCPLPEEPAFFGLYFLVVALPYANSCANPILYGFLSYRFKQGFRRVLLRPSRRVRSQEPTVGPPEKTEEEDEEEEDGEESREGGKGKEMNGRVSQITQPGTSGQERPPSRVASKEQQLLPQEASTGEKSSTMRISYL
Experiment [4] concerns the target Somatostatin receptor type 4 (Homo sapiens, UniProt P31391). Nature of the experiment: Displacement of [125I]-somatostatin from human sst4 receptor after 2 hrs by beta scintillation counting analysis.
Experiment [5] addresses Somatostatin receptor type 5 (Homo sapiens, UniProt P35346). The experiment is described as follows: Displacement of [125I]-somatostatin from human sst5 receptor after 2 hrs by beta scintillation counting analysis.
For experiment [6], the species on record is Homo sapiens. The experiment is described as follows: Selectivity ratio of Ki for human sst1 receptor to Ki for human sst4 receptor.
The species named for experiment [7] is Homo sapiens. Nature of the experiment: Selectivity ratio of Ki for human sst2a receptor to Ki or human sst4 receptor.

Somatostatin receptor type 1, sequence (P30872 whole entry): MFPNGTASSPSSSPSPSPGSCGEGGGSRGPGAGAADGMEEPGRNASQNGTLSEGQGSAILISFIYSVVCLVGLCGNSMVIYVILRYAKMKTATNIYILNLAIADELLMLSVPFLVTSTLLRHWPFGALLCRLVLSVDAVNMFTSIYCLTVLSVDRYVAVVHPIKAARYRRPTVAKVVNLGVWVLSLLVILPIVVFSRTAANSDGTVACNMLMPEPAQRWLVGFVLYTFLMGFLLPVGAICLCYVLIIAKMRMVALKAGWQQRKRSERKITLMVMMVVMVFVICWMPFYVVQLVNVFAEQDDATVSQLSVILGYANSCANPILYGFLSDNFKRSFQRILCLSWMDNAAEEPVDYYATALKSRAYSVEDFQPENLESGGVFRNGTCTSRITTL
Somatostatin receptor type 5, sequence (P35346 whole entry): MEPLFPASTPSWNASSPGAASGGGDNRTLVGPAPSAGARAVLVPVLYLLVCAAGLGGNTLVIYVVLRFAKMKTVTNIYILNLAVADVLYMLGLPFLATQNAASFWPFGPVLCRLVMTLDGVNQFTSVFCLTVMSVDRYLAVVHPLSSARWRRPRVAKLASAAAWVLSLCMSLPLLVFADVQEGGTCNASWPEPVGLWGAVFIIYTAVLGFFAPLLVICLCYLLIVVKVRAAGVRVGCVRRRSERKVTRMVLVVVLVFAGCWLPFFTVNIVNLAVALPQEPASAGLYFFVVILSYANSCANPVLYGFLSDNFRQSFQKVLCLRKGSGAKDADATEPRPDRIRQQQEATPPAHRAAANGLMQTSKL
Somatostatin receptor type 4, sequence (P31391 whole entry): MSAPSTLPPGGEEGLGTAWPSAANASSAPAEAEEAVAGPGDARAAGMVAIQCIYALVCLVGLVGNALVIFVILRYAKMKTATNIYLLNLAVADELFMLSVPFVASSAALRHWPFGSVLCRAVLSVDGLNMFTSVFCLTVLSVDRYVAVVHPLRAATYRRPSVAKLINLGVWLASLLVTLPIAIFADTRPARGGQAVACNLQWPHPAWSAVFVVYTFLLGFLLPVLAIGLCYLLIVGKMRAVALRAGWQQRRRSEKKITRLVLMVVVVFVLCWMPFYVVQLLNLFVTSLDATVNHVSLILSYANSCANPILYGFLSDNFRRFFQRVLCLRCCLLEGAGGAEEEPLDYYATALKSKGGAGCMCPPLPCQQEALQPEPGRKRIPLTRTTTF
Somatostatin receptor type 2, sequence (P30874 whole entry): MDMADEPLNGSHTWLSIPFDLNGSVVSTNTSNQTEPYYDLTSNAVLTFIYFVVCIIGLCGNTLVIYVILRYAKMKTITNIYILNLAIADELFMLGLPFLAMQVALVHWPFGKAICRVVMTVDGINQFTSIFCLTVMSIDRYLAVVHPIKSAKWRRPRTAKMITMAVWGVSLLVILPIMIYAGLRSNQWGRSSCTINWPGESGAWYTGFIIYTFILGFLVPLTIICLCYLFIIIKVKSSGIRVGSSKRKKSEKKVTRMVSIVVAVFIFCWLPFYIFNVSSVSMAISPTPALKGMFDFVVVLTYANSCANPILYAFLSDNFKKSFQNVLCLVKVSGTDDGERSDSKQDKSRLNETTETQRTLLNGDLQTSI

`COC(=O)CCN(Cc1ccccc1)C(=O)CCN(C[C@@H](C)O)C(=O)CCN(CCCCN)C(=O)CN(CCc1c[nH]c2ccccc12)C(=O)CCN(Cc1ccccc1)C(C)=O`: the Ki in experiment [1] turned out to be 16 µM; in experiment [2], 110 µM; in experiment [3], 3.1 µM; in experiment [4], 21 µM; in experiment [5] it was 13.2 µM. The inhibition result in experiment [1], in experiment [2], in experiment [3], in experiment [4] and in experiment [5] was “Dose-dependent effect” each time.

With `COC(=O)CCN(Cc1ccccc1)C(=O)CCN(C[C@@H](C)O)C(=O)CCN(CCCCN)C(=O)CCN(CCc1c[nH]c2ccccc12)C(=O)CCN(Cc1ccccc1)C(C)=O`, the Ki in experiment [1] is 12 µM; in experiment [2], 55 µM; in experiment [3], 2.7 µM; in experiment [4] it was 12 µM; in experiment [5] it was 11 µM. Besides, the inhibition entry in experiment [1], in experiment [2], in experiment [3], in experiment [4] and in experiment [5] was “Dose-dependent effect” each time.

For `C[C@@H](O)CN1CCC(=O)N(Cc2ccccc2)CCC(=O)N(CCc2c[nH]c3ccccc23)CC(=O)N(CCCCN)CCC1=O`, the inhibitory constant (Ki) turned out to be 153 µM in experiment [1]; 176 µM in experiment [2]; 17 µM in experiment [3]; 20 µM in experiment [4]; 9.5 µM in experiment [5]. Moreover, the inhibition result in experiment [1], in experiment [2], in experiment [3], in experiment [4] and in experiment [5] was “Dose-dependent effect” each time.

`C[C@@H](O)CN1CCC(=O)N(Cc2ccccc2)CCC(=O)N(Cc2ccccc2)CCC(=O)N(CCc2c[nH]c3ccccc23)CC(=O)N(CCCCN)CCC1=O`: the inhibition constant (Ki) in experiment [1] is 16 µM; in experiment [2], 27 µM; in experiment [3], 2.4 µM; in experiment [4] it was 7.2 µM; in experiment [5], 2.1 µM. Also, the inhibition entry in experiment [1], in experiment [2], in experiment [3], in experiment [4] and in experiment [5] was “Dose-dependent effect” each time.

On to `C[C@@H](O)CN1CCC(=O)N(Cc2ccccc2)CCC(=O)N(CCc2c[nH]c3ccccc23)CCC(=O)N(CCCCN)CCC1=O`, for which the Ki in experiment [1] was found to be 102 µM; in experiment [2], 198 µM; in experiment [3], 22 µM; in experiment [4], 4.9 µM; in experiment [5] it was 28 µM. For the same compound, the inhibition entry in experiment [1], in experiment [2], in experiment [3], in experiment [4] and in experiment [5] was “Dose-dependent effect” throughout. For the same compound, the results for the Ratio Ki in experiment [6] and in experiment [7] were 20 and 40, respectively.

For the compound `C[C@@H](O)CN1CCC(=O)N(Cc2ccccc2)CCC(=O)N(Cc2ccccc2)CCC(=O)N(CCc2c[nH]c3ccccc23)CCC(=O)N(CCCCN)CCC1=O`, the Ki in experiment [1] was determined as 8.2 µM; in experiment [2], 44 µM; in experiment [3], 4.6 µM; in experiment [4], 10 µM; in experiment [5], 1.7 µM. Further, the inhibition result in experiment [1], in experiment [2], in experiment [3], in experiment [4] and in experiment [5] was “Dose-dependent effect” in each case.

As for `C[C@@H](O)[C@H](CO)NC(=O)[C@@H]1CSSC[C@H](NC(=O)[C@H](N)Cc2ccccc2)C(=O)N[C@@H](Cc2ccccc2)C(=O)N[C@H](Cc2c[nH]c3ccccc23)C(=O)N[C@@H](CCCCN)C(=O)N[C@@H]([C@@H](C)O)C(=O)N1` (H-[dF]CF[dW]KTC-{Threoninol(2S,3R)}; disulfide 2-7), the inhibition entry in experiment [1], in experiment [2], in experiment [3] and in experiment [4] was “Dose-dependent effect” each time.
